Calls of active or inactive are those of the source. The calls are words filed in the database; no cut-off is given here.
Columns and labels:
SW480 [1] = assay: Reversal of reduction in survivin expression in human SW480 cells at 20 uM after 48 hrs by immunoblot analysis in presence of 100 uM mevalonate; format: functional, cell-based
SW480 [2] = assay: Induction of cell cycle arrest in human SW480 cells by accumulation at G2/M phase at 20 uM after 48 hrs by flow cytometry; format: functional, cell-based
SW480 [3] = assay: Reversal of decrease in isoprenylated Ras level in human SW480 cells at 20 uM after 48 hrs by immunoblot analysis in presence of geranylgeranyl pyrophosphate; format: functional, cell-based
SW480 [4] = assay: Reversal of decrease in isoprenylated Ras level in human SW480 cells at 20 uM after 48 hrs by immunoblot analysis in presence of mevalonate; format: functional, cell-based
SW480 [5] = assay: Induction of cell cycle arrest in human SW480 cells by accumulation at S phase at 20 uM after 48 hrs by flow cytometry; format: functional, cell-based
HT-29 = assay: Growth inhibition of human HT29 cells after 96 hrs by MTS assay; format: functional, cell-based; conditions: HT-29, 96 h
SW480 [6] = assay: Decrease in isoprenylated Ras level in human SW480 cells at 20 uM after 48 hrs by immunoblot analysis; format: functional, cell-based
SW480 [7] = assay: Inhibition of FBS-stimulated increase in Ras protein expression in human SW480 cells assessed as GTP-bound protein at 20 uM by immunoblot analysis; format: functional, cell-based
SW480 [8] = assay: Reversal of decrease in isoprenylated Ras level in human SW480 cells at 20 uM after 48 hrs by immunoblot analysis in presence of squalene; format: functional, cell-based
SW480 [9] = assay: Reversal of decrease in isoprenylated Ras level in human SW480 cells at 20 uM after 48 hrs by immunoblot analysis in presence of farnesyl pyrophosphate; format: functional, cell-based
SW480 [10] = assay: Reversal of growth inhibition of human SW480 cells at 20 uM after 48 hrs by […] in presence of farnesyl pyrophosphate; format: functional, cell-based
[11] = Growth inhibition of human LS180 cells after 96 hrs by MTS assay; format: functional, cell-based; conditions: LS180, 96 h
SW480 [12] = assay: Decrease in survivin mRNA expression in human SW480 cells at 20 uM after 48 hrs by RT-PCR technique; format: functional
SW480 [13] = assay: Reversal of reduction in survivin mRNA expression in human SW480 cells at 20 uM after 48 hrs by RT-PCR technique in presence of 100 uM mevalonate; format: functional, cell-based
LS180 [14] = assay: Inhibition of survivin expression in parent human LS180 cells at 20 uM by immunoblot analysis; format: functional, cell-based
SW480 [15] = assay: Reversal of growth inhibition of human SW480 cells at 20 uM after 48 hrs by MTS assay in presence of >50 uM mevalonate; format: functional, cell-based
SW480 [16] = assay: Reversal of inhibition of FBS-stimulated increase in Ras protein expression in human SW480 cells assessed as GTP-bound protein at 20 uM by immunoblot analysis; format: functional, cell-based
SW480 [17] = assay: Effect on Bax expression in human SW480 cells; format: functional, cell-based
SW480 [18] = assay: Reversal of growth inhibition of human SW480 cells at 20 uM after 48 hrs by […] in presence of geranylgeranyl pyrophosphate; format: functional, cell-based
LS180 [19] = assay: Blockade of growth inhibition of survivin gene transfected human LS180 cells after 72 hrs by MTS method; format: functional, cell-based
SW480 [20] = assay: Growth inhibition of human SW480 cells after 96 hrs by MTS assay; format: functional, cell-based; conditions: SW480, 96 h
[21] = target: RAC-alpha serine/threonine-protein kinase (Homo sapiens) (UniProt P31749); assay: Inhibition of FBS-stimulated increase in Akt phosphorylation in human SW480 cells at 20 uM by immunoblot analysis; format: cell-based
Chain of RAC-alpha serine/threonine-protein kinase (Homo sapiens) (P31749 whole entry): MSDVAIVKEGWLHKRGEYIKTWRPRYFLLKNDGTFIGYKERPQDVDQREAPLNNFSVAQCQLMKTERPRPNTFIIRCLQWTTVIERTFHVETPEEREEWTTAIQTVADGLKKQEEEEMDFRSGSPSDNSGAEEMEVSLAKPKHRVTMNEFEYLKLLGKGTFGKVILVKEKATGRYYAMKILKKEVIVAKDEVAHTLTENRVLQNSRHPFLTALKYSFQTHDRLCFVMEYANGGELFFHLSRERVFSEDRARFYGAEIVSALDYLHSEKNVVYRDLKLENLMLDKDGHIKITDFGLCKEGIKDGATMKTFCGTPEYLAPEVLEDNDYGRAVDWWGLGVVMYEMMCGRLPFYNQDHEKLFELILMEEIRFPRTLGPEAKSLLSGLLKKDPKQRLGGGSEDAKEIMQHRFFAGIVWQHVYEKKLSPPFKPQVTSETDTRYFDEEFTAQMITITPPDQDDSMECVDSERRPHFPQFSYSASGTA

SW480 [22] = assay: Induction of apoptosis in human SW480 cells at 20 uM after 48 hrs by annexin-V propidium iodide staining method; format: functional
SW480 [23] = assay: Reversal of growth inhibition of human SW480 cells at 20 uM after 48 hrs by […] in presence of squalene; format: functional, cell-based
SW480 [24] = assay: Induction of cell cycle arrest in human SW480 cells by accumulation at G0/G1 phase at 20 uM after 48 hrs by flow cytometry; format: functional, cell-based
LS180 [25] = assay: Inhibition of survivin expression in survivin gene transfected human LS180 cells at 20 uM immunoblot analysis; format: functional, cell-based
LS180 [26] = assay: Blockade of growth inhibition of human LS180 cells after 72 hrs by MTS method; format: functional, cell-based
SW480 [27] = assay: Induction of apoptosis in human SW480 cells assessed as increase in hypodiploid DNA content at 20 uM after 48 hrs by flow cytometry relative to control; format: functional
SW480 [28] = assay: Decrease in survivin expression in human SW480 cells at 20 uM after 48 hrs by immunoblot analysis; format: functional, cell-based
SW480 [29] = assay: Decrease in survivin expression in human SW480 cells at 20 uM after 24 hrs by immunoblot analysis; format: functional, cell-based

For `CC[C@H](C)C(=O)O[C@H]1C[C@@H](C)C=C2C=C[C@H](C)[C@H](CC[C@@H]3C[C@@H](O)CC(=O)O3)[C@H]21` [LOVASTATIN], the Activity (SW480 [1]) was “Active”, the Activity (SW480 [2]) was “inactive” and the Activity (SW480 [3]) was “Active”. The Activity (SW480 [4]) was “Active”, the Activity (SW480 [5]) was “inactive” and the IC50 (HT-29) was 46.8 µM. For the same compound, the Activity (SW480 [6]) was “Active”, the Activity (SW480 [7]) was “Active” and the Activity (SW480 [8]) was “inactive”. For the same compound, the Activity (SW480 [9]) was “Active”, the Activity (SW480 [10]) was “Active” and the IC50 [11] was 25.3 µM. The Activity (SW480 [12]) was 60%, the Activity (SW480 [13]) was “Active” and the Activity (LS180 [14]) was “Active”. For the same compound, the Activity (SW480 [15]) was “Active”, the Activity (SW480 [16]) was “Active” and the Activity (SW480 [17]) was “inactive”. For the same compound, the Activity (SW480 [18]) was “Active”, the Activity (LS180 [19]) was “Dose-dependent effect” and the IC50 (SW480 [20]) was 7.1 µM. For the same compound, the Activity [21] was “Active”, the Activity (SW480 [22]) was 24.2% and the Activity (SW480 [23]) was “inactive”. The Activity (SW480 [24]) was “inactive”, the Activity (LS180 [25]) was “Active” and the Activity (LS180 [26]) was “Active”. For the same compound, the Activity (SW480 [27]) was 20.7% and the Activity (SW480 [28]) was “Active”.
In the case of `O=c1cc(N2CCOCC2)oc2c(-c3ccccc3)cccc12`, the Activity (SW480 [29]) is reported as “Active”.
